Experimental findings from the supplement of paper PMC5579334 are described below.

For orientation: % inhibition means the drop in the measured response relative to a control, in per cent.

± gives the standard deviation of the averaged measurements.

Test [1] deals with HS-PSS. As to the kind of experiment: drug sensitivity score (DSS, CellTiter-Glo viability, 72 h) (DSS (dimensionless)); higher = more sensitive; extreme values may be limits of the assay. Summed up:
(§1)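 After seeding 750–1000 cells per well of MPNST cell lines or primary human Schwann cells into 384-well plates preprinted with each compound at five concentrations in 10-fold steps, plates were kept 72 h at 37 °C, 5% CO2. Viability was read as CellTiter-Glo ATP luminescence relative to vehicle and positive-control wells, with duplicates averaged where present. The data were fitted with four-parameter logistic models. Drug sensitivity score and relative IC50, censored at the top concentration, derive from the fits, and percent inhibition refers to the top concentration.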

Test [2] deals with HS-Sch-2. The test is described as above. Summed up:
as §1

Test [3] deals with HSC1 (primary human Schwann cells). Described as above. Summed up: as §1
For test [4], the system named is HSC2 (primary human Schwann cells). The test is described as above. The essentials:
as §1

The subject of test [5] is S1507-2. The description is as above. The essentials:
as §1

For test [6], the system named is S462. Described as above. The essentials: as §1
The subject of test [7] is ST8814. The test is described as above. Summed up: as §1
The subject of test [8] is STS26T. The test is described as above. The essentials: as §1
For test [9], the system named is YST-1. The description is as above. The essentials:
as §1

The test system of test [10] is HS-PSS. As to the kind of experiment: drug sensitivity score (DSS, CellTox-Green cytotoxicity, 72 h) (DSS (dimensionless)); higher = more cytotoxic; extreme values may be limits of the assay. The essentials:
(§2)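 For 72 h at 37 °C, MPNST cell lines and primary human Schwann cells were exposed in 384-well plates to five 10-fold compound dilutions. CellTox-Green, added before seeding at a final 1:1000 dilution, gave fluorescence from DNA released by disrupted cells. Signals were scaled to vehicle and positive-control wells, cultures failing plate quality control were left out, and four-parameter logistic fits were applied. Relative IC50 and drug sensitivity score were derived from the fits, with IC50 censored at the top concentration.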

Test [11] deals with HSC1 (primary human Schwann cells). The test is described as above. Summed up:
as §2

Test [12] has as its system HSC2 (primary human Schwann cells). The description is as above. The essentials: as §2
In test [13] the test system is S1507-2. The test is described as above. Summed up: as §2
Test [14] has as its system ST8814. The test is described as above. Summed up: as §2
The subject of test [15] is STS26T. The description is as above. Summed up: as §2
Test [16] concerns HS-PSS. Put plainly: % inhibition of CellTiter-Glo viability at highest tested concentration (72 h), relative to DMSO and benzethonium chloride controls; higher = more inhibition. Summed up: as §1
For orientation: ATP-based viability assays read luminescence as a measure of living cells.

Test [17] concerns HS-Sch-2. The test is described as above. Summed up:
as §1

Test [18] has as its system HSC1 (primary human Schwann cells). The description is as above. Summed up: as §1
Test [19] concerns HSC2 (primary human Schwann cells). Described as above. The essentials:
as §1

The subject of test [20] is S1507-2. The test is described as above. The essentials:
as §1

The subject of test [21] is S462. Described as above. Summed up:
as §1

In test [22] the test system is ST8814. Described as above. The essentials: as §1
Test [23] has as its system STS26T. The description is as above. The essentials:
as §1

The test system of test [24] is YST-1. The test is described as above. Summed up: as §1

Turning to `C#Cc1cccc(Nc2ncnc3cc(OCCOC)c(OCCOC)cc23)c1` [Erlotinib] (max concentration tested 10000 nM), the drug sensitivity score in the test with HS-PSS [1] worked out at 3.63; in the test on HS-Sch-2 [2] it was 5.08; in test [3], 5.2; in test [4], 5.39; in the test with S1507-2 [5], 1.85 ± 2; with S462 [6], 3.86 ± 0.29. In addition, the drug sensitivity score in the test with ST8814 [7] was 1.41; in the test with STS26T [8] it was 2.29; in the test on YST-1 [9], 5.25; in the test on HS-PSS [10] it was 0; in test [11] it was 0; in test [12], 0. For the same compound, the drug sensitivity score in the test with S1507-2 [13], in the test with ST8814 [14] and in the test on STS26T [15] was 0 each time. Further, the “% inhibition” value in the test with HS-PSS [16] was found to be 48.6%; in the test on HS-Sch-2 [17], 55.9%; in test [18], 73.1%; in [19], 74.7%; in the test on S1507-2 [20], 26.3 ± 10%; with S462 [21] it was 54.5 ± 2.7%. Further, the “% inhibition” value with ST8814 [22] came to 31.1%; in the test with STS26T [23] it was 33.2%; in the test with YST-1 [24], 56.7%.
On to `Cn1cc(C2=C(c3cn(C4CCN(Cc5ccccn5)CC4)c4ccccc34)C(=O)NC2=O)c2ccccc21` [Enzastaurin] (max concentration tested 10000 nM), for which the drug sensitivity score in the test on HS-PSS [1] turned out to be 3.43; with HS-Sch-2 [2], 0.28; in test [3], 1.32; in test [4], 1.06; in the test on S1507-2 [5], 3.15 ± 2.5; in the test on S462 [6], 0.0347 ± 0.049. In addition, the drug sensitivity score in the test with ST8814 [7] stood at 0.0668; with STS26T [8], 1.09; in the test with YST-1 [9], 0; in the test on HS-PSS [10], 0; in [11], 0; in test [12], 0. For the same compound, the drug sensitivity score with S1507-2 [13] worked out at 0; in the test with ST8814 [14], 0; with STS26T [15] it was 0.0176. Moreover, the “% inhibition” value with HS-PSS [16] worked out at 11.3%; in the test on HS-Sch-2 [17], 12.3%; in [18], 21.8%; in test [19], 25.1%; in the test on S1507-2 [20] it was 26.9 ± 3.6%; with S462 [21], 10.8 ± 2.6%. In addition, the “% inhibition” value in the test with ST8814 [22] is 12.8%; in the test with STS26T [23] it was 19.9%; in the test on YST-1 [24], -1.13%.
With `CC(C)Cn1cnc2c(N)nc3ccccc3c21` [Imiquimod] (max concentration tested 2500 nM), the drug sensitivity score in the test on HS-PSS [1] worked out at 0.9; in the test with HS-Sch-2 [2], 0.45; in test [3], 0; in test [4] it was 0; with S1507-2 [5] it was 0; in the test on S462 [6], 0. Besides, the drug sensitivity score (with ST8814 [7]; in the test on STS26T [8]; in the test on YST-1 [9]; in the test with HS-PSS [10]; in test [11]; in test [12]) was 0 in each case. In addition, the drug sensitivity score with S1507-2 [13], with ST8814 [14] and in the test on STS26T [15] was 0 in each case. For the same compound, the “% inhibition” value in the test on HS-PSS [16] is 14.8%; in the test with HS-Sch-2 [17], 16.9%; in test [18], -1.61%; in test [19], 6.67%; in the test on S1507-2 [20] it was -4.77 ± 3.7%; in the test on S462 [21] it was 1.41 ± 6.7%. Also, the entries for the “% inhibition” value in the test on ST8814 [22], in the test with STS26T [23] and in the test with YST-1 [24] were -6.88%, 3.07% and 4.76%, respectively.
